Activity calls are given as the source filed them. The calls are words filed in the database; no cut-off is given here.
Legend:
[1] = tested on: MV4-11; assay: Antiproliferative activity against human MV4-11 cells assessed as inhibition of cell growth at 10 uM incubated for 96 to 120 hrs by celltiter glo assay relative to control; type: functional; conditions: for inhibition at 10 µM: Homo sapiens, MV4-11, time 96-120 hrs
[2] = biological target: T1, Bromodomain-containing protein 4 (Homo sapiens, UniProt O60885); conditions: dose 200.0 µM, time 30-60 min
Description: Binding affinity to BRD4-BD1 (unknown origin) assessed as change in melting temperature at 200 uM incubated for 30 to 60 mins by SYPRO orange dye based thermal shift assay

[3] = tested on: CWR22R; assay: Antiproliferative activity against human 22Rv1 cells assessed as inhibition of cell growth at 10 uM incubated for 96 to 120 hrs by celltiter glo assay relative to control; type: functional; conditions: for inhibition at 10 µM: Homo sapiens, 22Rv1, time 96-120 hrs
[4] = biological target: T1, Bromodomain-containing protein 4; assay: Inhibition of BRD4-BD1 (unknown origin) using C-terminal biotinylated tetra-acetylated histone H4 peptide as substrate incubated for 2.5 hrs by alphascreen assay
[5] = tested on: MV4-11; assay: Antiproliferative activity against human MV4-11 cells assessed as inhibition of cell growth incubated for 96 to 120 hrs by celltiter glo assay; type: functional, cell-based
[6] = tested on: CWR22R; assay: Antiproliferative activity against human 22Rv1 cells assessed as inhibition of cell growth incubated for 96 to 120 hrs by celltiter glo assay; type: functional, cell-based
[7] = biological target: SWI/SNF-related matrix-associated actin-dependent regulator of chromatin subfamily A member 2 (Homo sapiens) (UniProt P51531); assay: Binding affinity to SMARCA2A (unknown origin) assessed as change in melting temperature at 200 uM incubated for 30 to 60 mins by SYPRO orange dye based thermal shift assay; conditions: time 30-60 min
Sequence of SWI/SNF-related matrix-associated actin-dependent regulator of chromatin subfamily A member 2 (Homo sapiens) (P51531 whole entry): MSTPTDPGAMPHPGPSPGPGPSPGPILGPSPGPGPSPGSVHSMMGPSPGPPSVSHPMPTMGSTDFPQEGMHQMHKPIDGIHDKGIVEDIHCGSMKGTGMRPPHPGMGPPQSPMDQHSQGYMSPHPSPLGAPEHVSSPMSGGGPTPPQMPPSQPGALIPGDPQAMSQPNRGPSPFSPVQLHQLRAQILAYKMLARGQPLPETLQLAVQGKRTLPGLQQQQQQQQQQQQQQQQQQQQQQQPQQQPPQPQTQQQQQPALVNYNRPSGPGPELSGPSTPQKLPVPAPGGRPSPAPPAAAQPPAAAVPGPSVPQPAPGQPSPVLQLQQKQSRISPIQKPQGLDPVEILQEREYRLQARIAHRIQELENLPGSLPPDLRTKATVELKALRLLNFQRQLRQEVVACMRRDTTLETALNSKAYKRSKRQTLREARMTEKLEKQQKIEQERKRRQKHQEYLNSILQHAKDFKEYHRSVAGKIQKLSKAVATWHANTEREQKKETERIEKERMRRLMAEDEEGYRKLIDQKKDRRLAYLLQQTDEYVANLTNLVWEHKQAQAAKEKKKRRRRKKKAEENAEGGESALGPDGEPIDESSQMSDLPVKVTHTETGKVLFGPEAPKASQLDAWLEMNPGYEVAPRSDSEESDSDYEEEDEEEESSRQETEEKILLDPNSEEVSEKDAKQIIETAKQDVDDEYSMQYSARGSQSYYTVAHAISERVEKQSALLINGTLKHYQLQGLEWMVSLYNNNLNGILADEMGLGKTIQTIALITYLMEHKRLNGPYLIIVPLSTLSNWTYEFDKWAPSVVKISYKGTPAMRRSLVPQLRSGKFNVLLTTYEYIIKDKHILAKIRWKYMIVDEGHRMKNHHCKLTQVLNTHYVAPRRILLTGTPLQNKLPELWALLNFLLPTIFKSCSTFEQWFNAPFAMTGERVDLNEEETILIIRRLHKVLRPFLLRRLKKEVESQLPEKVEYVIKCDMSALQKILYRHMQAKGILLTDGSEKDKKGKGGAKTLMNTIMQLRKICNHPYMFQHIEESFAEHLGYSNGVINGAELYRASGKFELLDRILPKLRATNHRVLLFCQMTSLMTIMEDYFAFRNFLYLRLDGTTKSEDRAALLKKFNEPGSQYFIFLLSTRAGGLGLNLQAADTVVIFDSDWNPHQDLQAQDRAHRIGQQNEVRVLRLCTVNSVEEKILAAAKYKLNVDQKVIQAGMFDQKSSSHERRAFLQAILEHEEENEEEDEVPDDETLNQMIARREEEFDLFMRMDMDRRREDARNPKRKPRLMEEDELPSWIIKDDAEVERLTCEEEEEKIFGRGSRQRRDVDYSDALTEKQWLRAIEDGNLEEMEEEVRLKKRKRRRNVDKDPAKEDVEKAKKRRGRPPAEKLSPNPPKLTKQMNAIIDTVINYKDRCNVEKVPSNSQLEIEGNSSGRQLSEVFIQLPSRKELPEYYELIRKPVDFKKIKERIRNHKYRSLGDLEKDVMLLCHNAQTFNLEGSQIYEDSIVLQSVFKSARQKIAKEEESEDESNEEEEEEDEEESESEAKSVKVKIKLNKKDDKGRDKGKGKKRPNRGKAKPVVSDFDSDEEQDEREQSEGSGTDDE

[8] = biological target: Histone acetyltransferase p300 (Homo sapiens) (UniProt Q09472); assay: Binding affinity to EP300 (unknown origin) assessed as change in melting temperature at 200 uM incubated for 30 to 60 mins by SYPRO orange dye based thermal shift assay; conditions: time 30-60 min
[9] = biological target: T1, Bromodomain-containing protein 4; assay: Inhibition of BRD4 BD1 in human MV4-11 cells assessed as inhibition of c-myc protein expression at 20 uM incubated for 48 hrs by Western blot analysis; type: cell-based
[10] = biological target: Bromodomain-containing protein 2 (Homo sapiens) (UniProt P25440); assay: Binding affinity to BRD2 BD1 (unknown origin) assessed as change in melting temperature at 200 uM incubated for 30 to 60 mins by SYPRO orange dye based thermal shift assay; conditions: time 30-60 min
Sequence of Bromodomain-containing protein 2 (Homo sapiens) (P25440 whole entry, looked up): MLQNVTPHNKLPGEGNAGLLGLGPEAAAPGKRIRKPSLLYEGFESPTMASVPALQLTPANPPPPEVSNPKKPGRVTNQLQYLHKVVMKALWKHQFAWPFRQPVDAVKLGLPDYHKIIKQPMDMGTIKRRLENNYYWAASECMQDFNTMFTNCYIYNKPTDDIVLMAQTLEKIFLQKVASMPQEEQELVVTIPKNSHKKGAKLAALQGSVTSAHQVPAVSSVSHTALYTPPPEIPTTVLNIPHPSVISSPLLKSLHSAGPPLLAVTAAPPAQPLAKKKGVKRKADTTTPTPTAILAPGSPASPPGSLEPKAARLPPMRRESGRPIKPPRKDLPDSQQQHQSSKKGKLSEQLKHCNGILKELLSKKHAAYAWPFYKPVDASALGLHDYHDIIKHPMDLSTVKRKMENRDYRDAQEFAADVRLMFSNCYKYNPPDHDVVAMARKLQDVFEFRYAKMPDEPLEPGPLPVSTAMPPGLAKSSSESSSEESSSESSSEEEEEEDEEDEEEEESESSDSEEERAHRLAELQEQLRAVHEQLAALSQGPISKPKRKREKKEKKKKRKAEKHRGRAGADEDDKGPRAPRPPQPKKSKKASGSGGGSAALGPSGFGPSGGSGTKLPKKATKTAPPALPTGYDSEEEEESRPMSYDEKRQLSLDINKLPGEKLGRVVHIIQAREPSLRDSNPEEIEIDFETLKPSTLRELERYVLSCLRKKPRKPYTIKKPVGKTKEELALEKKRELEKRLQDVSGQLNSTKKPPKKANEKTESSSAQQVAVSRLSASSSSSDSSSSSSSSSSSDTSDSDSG

[11] = biological target: Chromatin remodeling regulator CECR2 (Homo sapiens) (UniProt Q9BXF3); assay: Binding affinity to CECR2 (unknown origin) assessed as change in melting temperature at 200 uM incubated for 30 to 60 mins by SYPRO orange dye based thermal shift assay; conditions: time 30-60 min
[12] = biological target: Bromodomain-containing protein 3 (Homo sapiens) (UniProt Q15059); assay: Binding affinity to BRD3 BD1 (unknown origin) assessed as change in melting temperature at 200 uM incubated for 30 to 60 mins by SYPRO orange dye based thermal shift assay; conditions: time 30-60 min
[13] = biological target: CREB-binding protein (Homo sapiens) (UniProt Q92793); assay: Binding affinity to CBP (unknown origin) assessed as change in melting temperature at 200 uM incubated for 30 to 60 mins by SYPRO orange dye based thermal shift assay; conditions: time 30-60 min
[14] = biological target: Histone acetyltransferase KAT2B (Homo sapiens) (UniProt Q92831); assay: Binding affinity to PCAF (unknown origin) assessed as change in melting temperature at 200 uM incubated for 30 to 60 mins by SYPRO orange dye based thermal shift assay; conditions: time 30-60 min
[15] = biological target: Bromodomain adjacent to zinc finger domain protein 2B (Homo sapiens) (UniProt Q9UIF8); assay: Binding affinity to BAZ2B (unknown origin) assessed as change in melting temperature at 200 uM incubated for 30 to 60 mins by SYPRO orange dye based thermal shift assay; conditions: time 30-60 min
Sequence of Bromodomain adjacent to zinc finger domain protein 2B (Homo sapiens) (Q9UIF8 whole entry, the tested form may be a part): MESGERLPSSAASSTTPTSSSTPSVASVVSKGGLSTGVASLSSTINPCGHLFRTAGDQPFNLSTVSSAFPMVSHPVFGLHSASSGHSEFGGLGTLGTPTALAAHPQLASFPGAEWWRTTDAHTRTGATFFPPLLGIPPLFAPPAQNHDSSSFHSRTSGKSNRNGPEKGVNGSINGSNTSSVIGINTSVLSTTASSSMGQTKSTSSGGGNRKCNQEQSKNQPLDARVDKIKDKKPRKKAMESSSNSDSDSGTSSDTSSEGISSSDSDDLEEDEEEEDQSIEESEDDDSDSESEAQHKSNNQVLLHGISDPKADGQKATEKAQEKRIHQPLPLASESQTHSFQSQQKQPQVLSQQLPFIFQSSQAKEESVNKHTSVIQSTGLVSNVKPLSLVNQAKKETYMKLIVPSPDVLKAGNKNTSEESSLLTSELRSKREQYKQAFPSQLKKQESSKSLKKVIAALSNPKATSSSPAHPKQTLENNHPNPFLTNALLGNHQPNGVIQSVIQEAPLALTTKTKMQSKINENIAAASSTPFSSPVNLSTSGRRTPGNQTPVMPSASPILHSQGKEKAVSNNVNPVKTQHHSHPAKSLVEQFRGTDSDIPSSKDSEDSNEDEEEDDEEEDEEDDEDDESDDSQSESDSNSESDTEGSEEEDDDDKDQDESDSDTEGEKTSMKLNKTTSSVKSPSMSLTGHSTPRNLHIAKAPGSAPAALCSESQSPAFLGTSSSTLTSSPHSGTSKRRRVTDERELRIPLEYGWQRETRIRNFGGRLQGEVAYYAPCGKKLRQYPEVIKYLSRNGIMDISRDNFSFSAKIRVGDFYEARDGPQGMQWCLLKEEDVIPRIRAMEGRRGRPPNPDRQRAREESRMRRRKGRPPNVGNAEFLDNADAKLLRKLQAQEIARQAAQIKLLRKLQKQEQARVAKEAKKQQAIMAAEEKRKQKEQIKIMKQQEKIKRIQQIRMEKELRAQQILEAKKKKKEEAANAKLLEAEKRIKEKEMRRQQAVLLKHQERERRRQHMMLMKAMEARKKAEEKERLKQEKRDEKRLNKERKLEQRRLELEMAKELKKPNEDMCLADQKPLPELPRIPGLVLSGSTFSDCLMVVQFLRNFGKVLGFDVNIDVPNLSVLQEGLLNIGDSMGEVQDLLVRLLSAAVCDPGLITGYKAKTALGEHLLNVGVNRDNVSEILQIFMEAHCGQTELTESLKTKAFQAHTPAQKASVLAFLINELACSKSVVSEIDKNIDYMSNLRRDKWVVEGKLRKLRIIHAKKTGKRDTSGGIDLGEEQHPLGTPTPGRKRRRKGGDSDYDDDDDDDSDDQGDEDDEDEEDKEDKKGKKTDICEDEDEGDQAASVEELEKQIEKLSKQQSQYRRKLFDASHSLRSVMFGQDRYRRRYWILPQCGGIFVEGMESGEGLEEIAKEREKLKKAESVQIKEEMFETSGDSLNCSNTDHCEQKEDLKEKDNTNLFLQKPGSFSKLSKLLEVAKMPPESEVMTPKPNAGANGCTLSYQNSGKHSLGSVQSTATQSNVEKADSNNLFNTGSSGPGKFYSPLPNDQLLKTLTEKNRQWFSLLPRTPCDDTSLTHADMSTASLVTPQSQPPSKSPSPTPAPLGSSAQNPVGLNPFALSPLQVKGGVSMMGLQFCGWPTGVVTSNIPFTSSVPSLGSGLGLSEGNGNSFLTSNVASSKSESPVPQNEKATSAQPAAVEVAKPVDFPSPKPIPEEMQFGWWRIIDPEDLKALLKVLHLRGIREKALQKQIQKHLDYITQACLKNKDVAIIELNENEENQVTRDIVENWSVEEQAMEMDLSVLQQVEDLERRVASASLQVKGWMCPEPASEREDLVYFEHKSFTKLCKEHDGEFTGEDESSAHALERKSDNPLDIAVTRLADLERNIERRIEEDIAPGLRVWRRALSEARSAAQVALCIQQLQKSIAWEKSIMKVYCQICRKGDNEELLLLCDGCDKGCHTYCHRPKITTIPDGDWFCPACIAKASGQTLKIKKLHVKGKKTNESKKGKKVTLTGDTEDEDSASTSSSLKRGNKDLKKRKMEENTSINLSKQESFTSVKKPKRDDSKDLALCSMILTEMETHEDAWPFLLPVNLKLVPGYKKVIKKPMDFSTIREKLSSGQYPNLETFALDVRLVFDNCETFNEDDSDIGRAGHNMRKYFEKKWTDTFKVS

[16] = biological target: T1, Bromodomain-containing protein 4; assay: Inhibition of BRD4-BD1 (unknown origin) at 60 uM relative to control

Compound | inhibition at 10 µM [1] [%] | ΔTm [2] [°C] | inhibition at 10 µM [3] [%] | IC50 [4] [µM] | IC50 [5] [µM] | further results
Cc1n[nH]c2ccc(-c3nc4cnc(N5CCN(C)CC5)cn4c3Nc3cccc(Cl)c3)cc12 | 0 | 6.3 |  |  |  | 
Cc1n[nH]c2ccc(-c3nc4cnc(N5CCN(C)CC5)cn4c3Nc3ccc(F)cc3Br)cc12 | 82.4 | 5.1 | 4.41 | 7.48 | 3.83 | 
COc1ccc(Nc2c(-c3ccc4[nH]nc(C)c4c3)nc3cnc(N4CCN(C)CC4)cn23)cc1OC | 6.27 | 6.9 | 0 | 12.7 |  | 
Cc1n[nH]c2ccc(-c3nc4cnc(N5CCN(C)CC5)cn4c3Nc3ccccc3F)cc12 | 0 | 6.9 | 0 | 9.89 |  | 
Cc1ccc(C)c(Nc2c(-c3ccc4[nH]nc(C)c4c3)nc3cnc(N4CCN(C)CC4)cn23)c1 | 0 | 5.3 |  |  |  | 
Cc1n[nH]c2ccc(-c3nc4cnc(N5CCN(C)CC5)cn4c3Nc3ccc(F)cc3)cc12 | 0 | 6.5 |  | 4.17 | 32.3 | IC50 [6]: 33.6 µM
Cc1n[nH]c2ccc(-c3nc4cnc(N5CCN(C)CC5)cn4c3Nc3ccc(Cl)cc3F)cc12 | 0 | 4.5 |  | 6.78 | 10.3 | IC50 [6]: 14.1 µM
Cc1n[nH]c2ccc(-c3nc4cnc(N5CCN(C)CC5)cn4c3Nc3ccc(F)c(Cl)c3)cc12 | 84.1 | 6 | 0.82 | 5.81 | 2.85 | IC50 [6]: 14 µM
COc1ccc(Nc2c(-c3ccc4[nH]nc(C)c4c3)nc3cnc(N4CCOCC4)cn23)cc1 | 11.5 | 6.9 | 1.2 | 5.15 |  | 
COc1ccc(Nc2c(-c3ccc4[nH]nc(C)c4c3)nc3cnc(N4CCN(C)CC4)cn23)cc1 | 3.32 | 5.3 | 0 | 20.5 |  | 
Cc1n[nH]c2ccc(-c3nc4cnc(N5CCN(C)CC5)cn4c3Nc3ccc(Cl)cc3)cc12 | 83.7 | 5 | 8.11 | 6.35 | 3.51 | 
Cc1n[nH]c2ccc(-c3nc4cnc(N5CCN(C)CC5)cn4c3Nc3ccccc3Cl)cc12 | 58.1 | 3.6 |  |  |  | 
Cc1n[nH]c2ccc(-c3nc4cnc(N5CCN(C)CC5)cn4c3Nc3ccccc3)cc12 | 0 | 5 |  | 6.1 |  | 
Cc1sc2c(c1C)C(c1ccc(Cl)cc1)=N[C@@H](CC(=O)OC(C)(C)C)c1nnc(C)n1-2 |  |  |  |  | 0.017 | inhibition (INH) ([1]; time 96-120 hrs): 90.01%; IC50 [6]: 0.033 µM; inhibition (INH) ([3]; time 96-120 hrs): 82.88%; ΔTm [7]: -0.5 °C
Cc1n[nH]c2ccc(-c3nc4cnc(N5CCN(C)CC5)cn4c3Nc3ccc(Br)cc3Cl)cc12 | 70.5 | 2.7 |  |  | 9.22 | 
Cc1n[nH]c2ccc(-c3nc4cnc(N5CCN(C)CC5)cn4c3Nc3cc(Cl)ccc3Cl)cc12 | 23.8 | 3.9 | 3.8 | 3.61 |  | 
Cc1n[nH]c2ccc(-c3nc4cnc(N5CCOCC5)cn4c3Nc3ccc(Cl)cc3)cc12 | 84 | 7.5 | 13.8 | 3.55 | 3.7 | ΔTm [8]: -1.5 °C; IC50 [6]: 15.8 µM; inhibition [9]: Active; ΔTm [10]: 1 °C; ΔTm [11]: 0 °C; ΔTm [12]: 2.3 °C; ΔTm [13]: -1 °C; ΔTm [14]: -1.5 °C; ΔTm [15]: -2 °C; ΔTm [7]: 0 °C
Cc1n[nH]c2ccc(-c3nc4cnc(N5CCC(C)CC5)cn4c3Nc3ccc(Cl)cc3)cc12 | 27.9 | 2.1 | 12.6 | 20.4 |  | 
Cc1n[nH]c2ccc(-c3nc4cnc(N5CCOCC5)cn4c3Nc3ccc(Br)cc3)cc12 | 45.9 | 6.9 | 10.1 | 4.69 |  | 
Cc1n[nH]c2ccc(-c3nc4cnc(N5CCOCC5)cn4c3Cc3ccc(Cl)cc3)cc12 | 0 | 6.6 |  |  |  | 
Cc1n[nH]c2ccc(-c3nc4cnc(N5CCOCC5)cn4c3Nc3ccccc3)cc12 | 0 | 6.1 |  | 3.79 |  | IC50 [6]: 38.2 µM
Cc1n[nH]c2ccc(-c3nc4cnc(N5CCN(C)CC5)cn4c3Nc3ccc(Br)cc3)cc12 | 83 | 7.2 | 11.7 | 6.94 | 2.6 | 
Cc1n[nH]c2ccc(-c3nc4cnc(N5CCN(C)CC5)cn4c3Nc3ccc(I)cc3)cc12 | 0 | 4.5 |  |  |  | 
Cc1cc(Br)ccc1Nc1c(-c2ccc3[nH]nc(C)c3c2)nc2cnc(N3CCN(C)CC3)cn12 | 59.4 | 3.7 |  |  | 10.8 | IC50 [6]: 6.51 µM
Cc1n[nH]c2ccc(-c3nc4cnc(N5CCN(C)CC5)cn4c3Nc3cccc(F)c3)cc12 | 18.5 | 6.9 | 5.41 | 14.3 |  | 
Cc1n[nH]c2ccc(-c3nc4cnc(N5CCN(C)CC5)cn4c3Nc3ccc(Cl)cc3Cl)cc12 | 78.8 | 2 | 9.53 | 16 | 4.72 | 
COc1cc(-c2nc3cnccn3c2Nc2ccccc2)ccc1O |  |  |  |  |  | inhibition [16]: 40%

— ChEMBL document CHEMBL5233284, “Design, synthesis and anticancer evaluation of 3-methyl-1H-indazole derivatives as novel selective bromodomain-containing protein 4 inhibitors” (Bioorg Med Chem, 2021)
